Results: the NIST ThermoML archive (doi:10.1021/je5008789)
± gives the expanded uncertainty stated by the source.

Settings: Liquid; for mass density: Vibrating tube method; for viscosity: Vibrating wire viscometry

CC(C)CCCC(C)CCCC(C)CCCCC(C)CCCC(C)CCCC(C)C (configuration not stated) [2,6,10,15,19,23-hexamethyltetracosane]
Settings	mass density [kg/m3]	viscosity [mPa·s]
338.19 K, 1050 kPa	779.26 ± 1.6	6.815 ± 0.14
338.19 K, 21210 kPa	792.77 ± 1.6	9.666 ± 0.2
338.2 K, 40640 kPa	803.93 ± 1.7	13.19 ± 0.28
338.2 K, 60420 kPa	814.29 ± 1.7	17.71 ± 0.37
338.2 K, 79830 kPa	822.46 ± 1.8	23.48 ± 0.49
338.2 K, 100230 kPa	831.55 ± 1.9	30.94 ± 0.65
338.2 K, 140240 kPa	845.12 ± 1.9	52.3 ± 1.1
338.2 K, 161300 kPa	851.46 ± 2	68.14 ± 1.4
338.21 K, 119820 kPa	837.96 ± 1.9	40.32 ± 0.85
338.22 K, 940 kPa	778.91 ± 1.6	6.808 ± 0.14
338.29 K, 1010 kPa	779.46 ± 1.6	6.83 ± 0.14
373.12 K, 620 kPa	756.02 ± 1.5	3.122 ± 0.066
373.12 K, 780 kPa	756.09 ± 1.5	3.125 ± 0.066
373.12 K, 20350 kPa	771.55 ± 1.6	4.234 ± 0.089
373.12 K, 39970 kPa	784.5 ± 1.6	5.565 ± 0.12
373.12 K, 60030 kPa	795.89 ± 1.7	7.219 ± 0.15
373.12 K, 80950 kPa	806.36 ± 1.8	9.293 ± 0.2
373.12 K, 101160 kPa	815.48 ± 1.9	11.72 ± 0.25
373.12 K, 120420 kPa	823.57 ± 1.9	14.4 ± 0.3
373.12 K, 140640 kPa	831.1 ± 2	17.83 ± 0.38
373.12 K, 159510 kPa	837.61 ± 2	21.73 ± 0.46
373.12 K, 180460 kPa	843.98 ± 2.1	26.77 ± 0.56
373.12 K, 201380 kPa	850.63 ± 2.1	32.72 ± 0.69
388.13 K, 890 kPa	746.65 ± 1.5	2.432 ± 0.055
388.13 K, 20290 kPa	762.98 ± 1.6	3.25 ± 0.069
388.13 K, 80490 kPa	799.25 ± 1.8	6.828 ± 0.14
388.13 K, 101530 kPa	809.12 ± 1.9	8.548 ± 0.18
388.13 K, 120960 kPa	817.16 ± 1.9	10.46 ± 0.22
388.13 K, 139900 kPa	824.59 ± 2	12.58 ± 0.26
388.14 K, 1100 kPa	746.78 ± 1.5	2.436 ± 0.055
388.14 K, 40380 kPa	776.95 ± 1.6	4.242 ± 0.089
388.14 K, 59850 kPa	788.53 ± 1.7	5.392 ± 0.11
388.14 K, 160800 kPa	832.35 ± 2	15.31 ± 0.32
388.14 K, 180610 kPa	838.96 ± 2.1	18.4 ± 0.39
388.14 K, 201470 kPa	845.55 ± 2.1	22.16 ± 0.47
413.17 K, 1050 kPa	730.56 ± 1.5	1.691 ± 0.037
413.18 K, 20110 kPa	748.65 ± 1.6	2.233 ± 0.047
413.18 K, 40280 kPa	763.94 ± 1.6	2.885 ± 0.061
413.18 K, 60200 kPa	776.68 ± 1.7	3.62 ± 0.076
413.21 K, 80740 kPa	788.16 ± 1.8	4.485 ± 0.095
413.22 K, 100350 kPa	797.82 ± 1.9	5.454 ± 0.12
413.22 K, 120460 kPa	806.56 ± 1.9	6.574 ± 0.14
413.24 K, 610 kPa	730.1 ± 1.5	1.68 ± 0.037
413.24 K, 140200 kPa	815.07 ± 2	7.831 ± 0.17
413.25 K, 160570 kPa	822.8 ± 2	9.322 ± 0.2
413.25 K, 181450 kPa	829.85 ± 2.1	11.12 ± 0.23
413.25 K, 202090 kPa	836.75 ± 2.2	13.06 ± 0.27
433.18 K, 1120 kPa	717.8 ± 1.5	1.324 ± 0.029
433.19 K, 60430 kPa	767.55 ± 1.7	2.785 ± 0.059
433.19 K, 160660 kPa	815.65 ± 2.1	6.774 ± 0.14
433.19 K, 180700 kPa	823.09 ± 2.1	7.891 ± 0.17
433.19 K, 200370 kPa	830.05 ± 2.2	9.057 ± 0.19
433.2 K, 80190 kPa	779.13 ± 1.8	3.392 ± 0.072
433.21 K, 100280 kPa	789.84 ± 1.9	4.072 ± 0.086
433.21 K, 120040 kPa	798.72 ± 1.9	4.865 ± 0.1
433.21 K, 140200 kPa	807.55 ± 2	5.754 ± 0.12
433.31 K, 600 kPa	717.04 ± 1.4	1.309 ± 0.028
433.35 K, 20500 kPa	737.74 ± 1.5	1.749 ± 0.037
433.36 K, 680 kPa	717.22 ± 1.4	1.309 ± 0.028
433.36 K, 40310 kPa	753.83 ± 1.6	2.231 ± 0.047
452.85 K, 201770 kPa	823.37 ± 2.2	6.867 ± 0.14
452.95 K, 163170 kPa	809.3 ± 2.1	5.261 ± 0.11
452.95 K, 180270 kPa	815.84 ± 2.1	5.937 ± 0.12
453.15 K, 1150 kPa	704.74 ± 1.4	1.062 ± 0.023
453.16 K, 20190 kPa	726.4 ± 1.5	1.405 ± 0.03
453.17 K, 40450 kPa	744.09 ± 1.6	1.796 ± 0.038
453.18 K, 60480 kPa	758.43 ± 1.7	2.222 ± 0.047
453.18 K, 80140 kPa	770.59 ± 1.8	2.681 ± 0.057
453.18 K, 100410 kPa	781.58 ± 1.9	3.214 ± 0.068
453.19 K, 160150 kPa	808.49 ± 2.1	5.142 ± 0.11
453.2 K, 120790 kPa	791.61 ± 1.9	3.8 ± 0.08
453.2 K, 140400 kPa	800.32 ± 2	4.438 ± 0.094
453.2 K, 180710 kPa	816.55 ± 2.1	5.945 ± 0.12
472.81 K, 1050 kPa	691.59 ± 1.4	0.867 ± 0.019
473.03 K, 200210 kPa	815.83 ± 2.2	5.348 ± 0.11
473.04 K, 1050 kPa	691.45 ± 1.4	0.868 ± 0.019
473.05 K, 150 kPa	690.19 ± 1.4	0.853 ± 0.019
473.05 K, 20040 kPa	715.2 ± 1.5	1.151 ± 0.025
473.05 K, 39890 kPa	733.71 ± 1.6	1.465 ± 0.031
473.05 K, 120200 kPa	783.48 ± 1.9	3.031 ± 0.064
473.05 K, 140440 kPa	792.71 ± 2	3.531 ± 0.075
473.05 K, 160340 kPa	801 ± 2.1	4.073 ± 0.086
473.05 K, 180470 kPa	808.83 ± 2.2	4.671 ± 0.098
473.06 K, 60230 kPa	749.17 ± 1.7	1.81 ± 0.039
473.06 K, 79910 kPa	761.86 ± 1.8	2.175 ± 0.046
473.07 K, 100370 kPa	773.42 ± 1.9	2.59 ± 0.055
